The text below walks through data of PubChem BioAssay (NCI).

Among the test systems are KM12 colon; RXF 393 renal; SF-295 CNS; HS 578T breast; NCI/ADR-RES ovarian; MALME-3M melanoma; HCT-116 colon; A498 renal; HCC-2998 colon; MCF7 breast; HCT-15 colon; MDA-MB-435; OVCAR-5 ovarian; HOP-92 NSCLC; MOLT-4 leukemia; SW-620 colon; A549 NSCLC; COLO 205 colon; M14 melanoma; RPMI-8226 leukemia.
Assay in all cases: NCI anticancer screen, dose series, 48 h

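Method: 48-hour compound exposure of cells in 96-well plates, five concentrations, linear interpolation of endpoints. TGI marks complete inhibition of growth.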

`O=C(CC(C(=O)c1cccs1)c1ccsc1)c1cccs1` (configuration not stated): the TGI in the experiment with KM12 colon, with RXF 393 renal, with SF-295 CNS, with HS 578T breast, with NCI/ADR-RES ovarian and in the experiment with MALME-3M melanoma was over 100 µM each time. Moreover, the TGI is over 100 µM in the experiment on HCT-116 colon; over 100 µM with A498 renal; over 100 µM in the experiment with HCC-2998 colon; over 100 µM with MCF7 breast; over 100 µM in the experiment with HCT-15 colon; 92.4 µM in the experiment with MDA-MB-435. In addition, the TGI with OVCAR-5 ovarian, in the experiment on HOP-92 NSCLC, in the experiment with MOLT-4 leukemia, with SW-620 colon, in the experiment on A549 NSCLC and in the experiment with COLO 205 colon was over 100 µM throughout.
With `COc1cc(C)c2c(=O)c3ccccc3n(C)c2c1`, the TGI in the experiment with KM12 colon is over 100 µM; in the experiment with RXF 393 renal it was 40.4 µM; with SF-295 CNS, 34.9 µM; in the experiment on HS 578T breast it was 72.6 µM; in the experiment with NCI/ADR-RES ovarian, over 100 µM; in the experiment on MALME-3M melanoma, 73.2 µM. The TGI was 34 µM in the experiment on HCT-116 colon; 56.1 µM in the experiment with A498 renal; over 100 µM in the experiment on HCC-2998 colon; over 100 µM in the experiment with MCF7 breast; over 100 µM in the experiment with HCT-15 colon; over 100 µM with MDA-MB-435. Also, the TGI in the experiment on OVCAR-5 ovarian was over 100 µM; in the experiment on M14 melanoma, 60.8 µM; with HOP-92 NSCLC, 25.8 µM; in the experiment on MOLT-4 leukemia, over 100 µM; in the experiment with SW-620 colon, over 100 µM; with A549 NSCLC it was over 100 µM. For the same molecule, the TGI in the experiment with COLO 205 colon was 91.1 µM.
For `CC(OC(C)(C)C)[C@H](NC(=O)OC(C)(C)C)C(=O)O` (some centres not stated), the TGI with KM12 colon, with SF-295 CNS, in the experiment with HS 578T breast, with NCI/ADR-RES ovarian, in the experiment with MALME-3M melanoma and in the experiment with HCT-116 colon was over 100 µM throughout. Also, the TGI in the experiment on A498 renal, in the experiment with HCC-2998 colon, in the experiment on MCF7 breast, in the experiment on HCT-15 colon, in the experiment with MDA-MB-435 and in the experiment on RPMI-8226 leukemia was over 100 µM each time. The TGI in the experiment with OVCAR-5 ovarian, with M14 melanoma, in the experiment on HOP-92 NSCLC, with MOLT-4 leukemia, with SW-620 colon and with A549 NSCLC was over 100 µM throughout. For the same molecule, the TGI in the experiment with COLO 205 colon is over 100 µM.
On to `O=C1c2ccccc2NC(=O)C2C1C(c1ccccc1)CC2(O)c1ccccc1` (configuration not stated), for which the TGI is over 100 µM in the experiment with KM12 colon; over 100 µM in the experiment on RXF 393 renal; over 100 µM in the experiment on SF-295 CNS; 98.3 µM in the experiment on HS 578T breast; over 100 µM in the experiment with NCI/ADR-RES ovarian; over 100 µM in the experiment with MALME-3M melanoma. The TGI in the experiment on HCT-116 colon is 37.8 µM; with A498 renal it was over 100 µM; in the experiment on HCC-2998 colon, over 100 µM; with MCF7 breast, over 100 µM; in the experiment on HCT-15 colon, over 100 µM; in the experiment with MDA-MB-435 it was over 100 µM. Besides, the TGI is over 100 µM in the experiment with OVCAR-5 ovarian; over 100 µM in the experiment on M14 melanoma; 67 µM in the experiment on HOP-92 NSCLC; 71.5 µM in the experiment with MOLT-4 leukemia; over 100 µM with SW-620 colon; over 100 µM in the experiment with A549 NSCLC. Also, the TGI in the experiment with COLO 205 colon was 36.9 µM.
For `Nc1nc(N)c(C2=CCNCC2)c(=O)[nH]1`, the TGI in the experiment with KM12 colon, with RXF 393 renal, in the experiment with SF-295 CNS, with HS 578T breast, in the experiment with NCI/ADR-RES ovarian and in the experiment with MALME-3M melanoma was over 100 µM each time. For the same molecule, the TGI with HCT-116 colon, with A498 renal, in the experiment with MCF7 breast, in the experiment with HCT-15 colon, in the experiment with MDA-MB-435 and with RPMI-8226 leukemia was over 100 µM each time. Further, the TGI in the experiment on OVCAR-5 ovarian, in the experiment with M14 melanoma, in the experiment with HOP-92 NSCLC, with MOLT-4 leukemia, with SW-620 colon and in the experiment with A549 NSCLC was over 100 µM each time. In the experiment on COLO 205 colon, the TGI was over 100 µM.
As to `Oc1ccccc1/C=N/Nc1nc(N/N=C/c2ccccc2O)nc(N/N=C/c2ccccc2O)n1`, the TGI in the experiment with KM12 colon, in the experiment on RXF 393 renal, in the experiment on SF-295 CNS, with HS 578T breast, in the experiment with NCI/ADR-RES ovarian and in the experiment with MALME-3M melanoma was over 100 µM throughout. For the same molecule, the TGI in the experiment with HCT-116 colon, in the experiment with A498 renal, with HCC-2998 colon, with MCF7 breast, in the experiment on HCT-15 colon and in the experiment with MDA-MB-435 was over 100 µM throughout. For the same molecule, the TGI in the experiment on OVCAR-5 ovarian was over 100 µM; with M14 melanoma, over 100 µM; with HOP-92 NSCLC it was 81.7 µM; in the experiment on MOLT-4 leukemia, over 100 µM; with SW-620 colon, over 100 µM; with A549 NSCLC, over 100 µM. Besides, in the experiment on COLO 205 colon, the TGI was over 100 µM.
In the case of `CCOP(=O)(CCCC(O)CNc1cc(Cl)nc(N)n1)OCC` (configuration not stated), the TGI in the experiment with KM12 colon, with RXF 393 renal, in the experiment on SF-295 CNS, in the experiment on HS 578T breast, in the experiment with NCI/ADR-RES ovarian and with MALME-3M melanoma was over 100 µM each time. Further, the TGI with HCT-116 colon, in the experiment with A498 renal, in the experiment on HCC-2998 colon, with MCF7 breast, with HCT-15 colon and in the experiment on MDA-MB-435 was over 100 µM each time. Further, the TGI in the experiment with RPMI-8226 leukemia, in the experiment on OVCAR-5 ovarian, with HOP-92 NSCLC, in the experiment on MOLT-4 leukemia, in the experiment on SW-620 colon and in the experiment with A549 NSCLC was over 100 µM throughout. This molecule showed a TGI in the experiment on COLO 205 colon of over 100 µM.
